Assays:
Type in all cases: physicochemical
[1] = Dynamic Vapor Sorption (DVS) analysis with XRPD after equilibration
Protocol: Sorption isotherms were obtained using a Hiden Isochema moisture sorption analyzer (model IGAsorp), controlled by IGAsorp Systems Software V6.50.48. The sample was maintained at a constant temperature (25° C.) by the instrument controls. The humidity was controlled by mixing streams of dry and wet nitrogen, with a total flow of 250 mL·min^−1. The instrument was verified for relative humidity content by measuring three calibrated Rotronic salt solutions (10%, 50%, 88%). The weight change of the sample was monitored as a function of humidity by a microbalance (accuracy+/−0.005 mg). A defined amount of sample was placed in a tared mesh stainless steel basket under ambient conditions. A full experimental cycle typically consisted of three scans (sorption, desorption and sorption) at a constant temperature (25° C.) and 10% RH intervals over a 0-90% range (60 minutes for each humidity level). […]
This water content decreased as relative humidity decreased in the first desorption cycle.
The solid absorbed 3.39% water over the humidity range. […] The profile was similar to that of Form C in Example 7.2.

[2] = Drying studies of Compound 1 Hydrochloride (XRPD, TGA)
Protocol: Compound 1 Hydrochloride Form A was then subjected to drying under various conditions.
Drying studies of Compound 1 Hydrochloride Form A (Type 1 Lot) were performed.
Variability in the drying profiles of different lots of Compound 1 Hydrochloride were noted, particularly with regards to the transition between Form A and Form C. The variable behavior appeared to depend upon the nature of the input Form A batch (e.g., how it was generated and then conditioned, if at all, prior to drying, and/or if excess hydrochloric acid was present).
Concentrated HCl (154 μL, 1 eqiuv) was added which clarified the suspension to a deep orange solution. The mixture was equilibrated for 30 minutes before cooling gradually to room temperature. A thin yellow suspension resulted. The solvent volume was reduced by 50% which thickened the suspension. The suspension was matured overnight, following which the solid was filtered to isolate the solids. The solid was air dried for ˜30 minutes giving a yellow solid (damp mass: 1.24 g; pH measured at 5.0). The XRPD pattern of the damp solid corresponded with Compound 1 Hydrochloride Form H. Analysis of the damp solid by DSC and TGA indicated a water content of 8.2%, which was fairly labile up ˜75° C.
Compound 1 Hydrochloride Form H was then subjected to a drying study under various conditions.
The solids were further subjected to prolonged drying.

[3] = Solid state stability under humid conditions (40° C./75% RH and 25° C./60% RH, two weeks)
Protocol: Stability of Compound 1 Hydrochloride Forms A, B, C, and D was evaluated under humid conditions. Samples of Forms A, B, C, and D were stored at 40° C./75% RH and 25° C./60% RH for a period of two weeks (loosely capped glass vials with approx. 200 mg solid). Solids were then re-analyzed using methods described herein. A summary of the results is provided in Table 12 (after storage at 25° C./60% RH) and Table 13 (after storage at 40° C./75% RH).

[4] = pH-dependent solubility (NaOH titration, pH 3-8); settings: 25° C.
Protocol: A titration and solubility determination of Compound 1 Hydrochloride Form A (Type 1 Lot) was performed using NaOH over a pH range of 3-8. A solution was produced at 25° C. with magnetic agitation by combining 100 mg Compound 1 Hydrochloride Form A (Type 1 Lot) into 5 mL deionized water to give a concentration of 20 mg/mL within a clean glass vessel. […] The solution was slowly basified using 1.0 N, 0.1 N, and 0.01 N NaOH (with the lower concentrations being used to finely adjust pH close to the end point target pH and avoid overshooting) to achieve pH values of 4, 5, 5.5, 6, 7, and 8. […] The concentration of the test solution was lowered at pH 6 from 20 mg/mL to 5 mg/mL with repeat testing at each concentration to illustrate salt impact. Each pH value was allowed to equilibrate to stability prior to solubility evaluation via HPLC assessment of the clarified liquors. Dilution by 100× or 50× into the working range was performed using deionized water.

[5] = Dry in vacuo at 25° C., T = 24 h
[6] = Dry in vacuo at 25° C., T = 96 h
[7] = Dry in vacuo at 25° C., T = 120 h
[8] = Dry in vacuo at 45° C., T = 24 h
[9] = Dry in vacuo at 45° C., T = 96 h
[10] = Dry in vacuo at 45° C., T = 120 h
[11] = Dry in vacuo at 70° C., T = 24 h
[12] = Dry in vacuo at 70° C., T = 96 h
[13] = Dry in vacuo at 70° C., T = 120 h

## COC(=O)c1ccc2c(c1)NC(=O)/C2=C(\Nc1ccc(N(C)C(=O)CN2CCN(C)CC2)cc1)c1ccccc1.Cl [Compound 1 Hydrochloride Form A (Type 1 Lot)]
[1]; 0-90% RH
  XRPD across the humidity range over the course of DVS analysis: Form A remained
[1]; 25° C., 0-90% RH
  water absorbed over the humidity range (DVS): 13.4 wt %
[1]; as relative humidity decreased
  reversibility of water uptake (DVS): reversible
[1]; high humidity, comparison stated in Example 7.3
  water uptake (DVS): above 13%
[1]; up to 30% RH
  water uptake up to 30% RH (DVS): 8.5 wt %
[2]; [5]
  TGA (%): 11.12%
  XRPD: Form A
[2]; [6]
  TGA (%): 10.14%
  XRPD: Form A
[2]; [7]
  TGA (%): 10.47%
  XRPD: Form A
[2]; [8]
  TGA (%): 9.84%
  XRPD: Form A
[2]; [9]
  TGA (%): 8.71%
  XRPD: Form A
[2]; [10]
  TGA (%): 10.19%
  XRPD: Form A
[2]; [11]
  TGA (%): 10.48%
  XRPD: Form A
[2]; [12]
  TGA (%): 8.19%
  XRPD: Form A
[2]; [13]
  TGA (%): 10.85%
  XRPD: Form A
[2]; T = 0, before drying
  TGA (%): 9.673%
[3]; 25° C./60% RH
  TGA After Storage: further loss above/post 200° C.: 100° C., further loss of 0.96%
  TGA After Storage: total water content: of 10.9%
  XRPD After Storage: Form A
[3]; 40° C./75% RH
  TGA After Storage: further loss above/post 200° C.: 100° C., further loss of 1.05%
  TGA After Storage: total water content: of 11.18%
  TGA After Storage: weight reduction up to 100° C.: Weight reduction of 10.13% up to
  XRPD After Storage: Form A
[4]; 20 mg/mL in deionized water, stable over 10 minutes
  initial pH reading of solution: 3.03
[4]; pH 3.03, starting concentration 20 mg/mL
  Solubility: >20000 µg/mL
[4]; pH 4.0, starting concentration 20 mg/mL
  Solubility: >20000 µg/mL
[4]; pH 5.0, starting concentration 20 mg/mL
  Solubility: 16000 µg/mL
[4]; pH 5.5, starting concentration 20 mg/mL
  Solubility: 700 µg/mL
[4]; pH 6.0, starting concentration 5 mg/mL
  Solubility: 60 µg/mL
[4]; pH 6.0, starting concentration 20 mg/mL
  Solubility: 60 µg/mL
[4]; pH 7.0, starting concentration 5 mg/mL
  Solubility: 50 µg/mL
[4]; pH 8.0, starting concentration 5 mg/mL
  Solubility: 1 µg/mL

Reference: US20230312561A1, “SOLID FORMS OF (Z)-METHYL 3-(((4-(N-METHYL-2-(4-METHYLPIPERAZIN-1-YL)ACETAMIDO)PHENYL)AMINO)(PHENYL)METHYLENE)-2-OXO-2,3-DIHYDRO-1H-PYRROLO[2,3-B]PYRIDINE-6-CARBOXYLATE AND SALTS THEREOF” (Angion Biomedica Corp., priority 2020, published 2023)
